Positions of bridges follow the written chain, without caps; N, C: chain ends. Non-standard residues stand in square brackets, D forms with d. Residues, ends and D or L forms follow the SMILES beside them. *: point of attachment. Ileψ(thiazoline)Cys = CC[C@H](C)[C@H](N)C1=N[C@H](C(=O)*)CS1; dOrn = NCCC[C@@H](N)C(=O)O
Columns and labels:
[1] = organism: Homo sapiens; experiment: Liver toxicity in human assessed as induction of drug-induced liver injury by measuring verified drug-induced liver injury concern status
[2] = organism: Homo sapiens; experiment: Liver toxicity in human assessed as induction of drug-induced liver injury by measuring severity class index
For DILI severity class in this document: key of the grades not given here.

For `CN1C(=O)CN=C(c2ccccc2)c2cc(Cl)ccc21` [DIAZEPAM], the DILI_Concern [1] was “Ambiguous-Dili-Concern” and the DILI_severity_class [2] was 4.
With `C[C@]12CC[C@H]3[C@@H](CCC4=CC(=O)CC[C@@]43C)[C@@H]1CC[C@@H]2O` [TESTOSTERONE] the DILI_Concern [1] was “Most-Dili-Concern” and the DILI_severity_class [2] was 8.
For `CN1C(CCl)Nc2cc(Cl)c(S(N)(=O)=O)cc2S1(=O)=O` (stereo not drawn) [METHYCLOTHIAZIDE], the DILI_Concern [1] was “Ambiguous-Dili-Concern” and the DILI_severity_class [2] was 2.
For `COc1cc2c(cc1OC)C(=O)C(CC1CCN(Cc3ccccc3)CC1)C2` (stereo not drawn) [DONEPEZIL], the DILI_Concern [1] was “Less-Dili-Concern” and the DILI_severity_class [2] was 3.
With `CN1CCN(C(=O)O[C@H]2c3nccnc3C(=O)N2c2ccc(Cl)cn2)CC1` [ESZOPICLONE] the DILI_Concern [1] was “Ambiguous-Dili-Concern” and the DILI_severity_class [2] was 3.
`CC(C(=O)O)c1ccc(N2CC=CC2)c(Cl)c1` (stereo not drawn) [PIRPROFEN] was tested, and the DILI_Concern [1] was “Most-Dili-Concern” and the DILI_severity_class [2] was 8.
In the case of SIMETHICONE, the DILI_Concern [1] is reported as “No-Dili-Concern” and the DILI_severity_class [2] is reported as 0.
`CN1C(=O)CCS(=O)(=O)C1c1ccc(Cl)cc1` (stereo not drawn) [CHLORMEZANONE] was tested, and the DILI_Concern [1] was “Most-Dili-Concern” and the DILI_severity_class [2] was 8.
In the case of `CCOC(=O)C(C)(C)Oc1ccc(Cl)cc1` [CLOFIBRATE], the DILI_Concern [1] is reported as “Less-Dili-Concern” and the DILI_severity_class [2] is reported as 3.
`C[C@H](CS)C(=O)N1CCC[C@H]1C(=O)O` [CAPTOPRIL] was tested, and the DILI_Concern [1] was “Less-Dili-Concern” and the DILI_severity_class [2] was 7.
For `CN(C)[C@@H]1C(O)=C(C(N)=O)C(=O)[C@@]2(O)C(O)=C3C(=O)c4c(O)cccc4[C@@](C)(O)[C@H]3[C@H](O)[C@@H]12` [OXYTETRACYCLINE], the DILI_Concern [1] was “Ambiguous-Dili-Concern” and the DILI_severity_class [2] was 2.
For `CNCCC(Oc1ccc(C(F)(F)F)cc1)c1ccccc1` (stereo not drawn) [FLUOXETINE], the DILI_Concern [1] was “Less-Dili-Concern” and the DILI_severity_class [2] was 3.
`CC[C@H](C)[C@@H]1NC(=O)[C@H](Cc2ccc(O)cc2)NC(=O)[C@@H](N)CSSC[C@@H](C(=O)N2CCC[C@H]2C(=O)N[C@@H](CC(C)C)C(=O)NCC(N)=O)NC(=O)[C@H](CC(N)=O)NC(=O)[C@H]([C@@H](C)O)NC1=O` (H-CYITNCPLG-NH2; disulfide 1-6) was tested, and the DILI_Concern [1] was “No-Dili-Concern” and the DILI_severity_class [2] was 0.
In the case of `C[C@](N)(Cc1ccc(O)c(O)c1)C(=O)O` [METHYLDOPA], the DILI_Concern [1] is reported as “Most-Dili-Concern” and the DILI_severity_class [2] is reported as 8.
In the case of `CS(=O)(=O)O.C[C@H](N)C(=O)N[C@@H](C)C(=O)N[C@H]1[C@@H]2CN(c3nc4c(cc3F)c(=O)c(C(=O)O)cn4-c3ccc(F)cc3F)C[C@@H]21` [ALATROFLOXACIN MESYLATE], the DILI_Concern [1] is reported as “Most-Dili-Concern” and the DILI_severity_class [2] is reported as 8.
In the case of `CN1[C@@H]2C[C@@H](OC(=O)[C@H](CO)c3ccccc3)C[C@H]1[C@@H]1O[C@@H]12` [SCOPOLAMINE], the DILI_Concern [1] is reported as “No-Dili-Concern” and the DILI_severity_class [2] is reported as 0.
`CNC(=O)c1c(I)c(NC(C)=O)c(I)c(C(=O)[O-])c1I.[Na+]` [IOTHALAMATE SODIUM] was tested, and the DILI_Concern [1] was “No-Dili-Concern” and the DILI_severity_class [2] was 0.
With `CCCC[C@](C)(O)C/C=C/[C@H]1[C@H](O)CC(=O)[C@@H]1CCCCCCC(=O)OC` the DILI_Concern [1] was “Ambiguous-Dili-Concern” and the DILI_severity_class [2] was 3.
`O=C1c2cccc3c2[C@H](CCC3)CN1[C@@H]1CN2CCC1CC2` [PALONOSETRON] was tested, and the DILI_Concern [1] was “Ambiguous-Dili-Concern” and the DILI_severity_class [2] was 4.
In the case of `O=c1n(CCCN2CCN(c3cccc(Cl)c3)CC2)nc2ccccn12` [TRAZODONE], the DILI_Concern [1] is reported as “Less-Dili-Concern” and the DILI_severity_class [2] is reported as 5.
With `COC(=O)C(c1ccccc1)C1CCCCN1` (stereo not drawn) [METHYLPHENIDATE] the DILI_Concern [1] was “Less-Dili-Concern” and the DILI_severity_class [2] was 3.
`CNCC[C@H](Oc1cccc2ccccc12)c1cccs1` [DULOXETINE] was tested, and the DILI_Concern [1] was “Most-Dili-Concern” and the DILI_severity_class [2] was 8.
In the case of `CCCc1nc(C(C)(C)O)c(C(=O)OCc2oc(=O)oc2C)n1Cc1ccc(-c2ccccc2-c2nnn[nH]2)cc1` [OLMESARTAN MEDOXOMIL], the DILI_Concern [1] is reported as “Ambiguous-Dili-Concern” and the DILI_severity_class [2] is reported as 4.
In the case of `CC1=C(C(=O)O)N2C(=O)[C@@H](NC(=O)[C@H](N)c3ccc(O)cc3)[C@H]2SC1` [CEFADROXIL], the DILI_Concern [1] is reported as “Less-Dili-Concern” and the DILI_severity_class [2] is reported as 7.
`CCC(C)n1ncn(-c2ccc(N3CCN(c4ccc(OCC5COC(Cn6cncn6)(c6ccc(Cl)cc6Cl)O5)cc4)CC3)cc2)c1=O` (stereo not drawn) [ITRACONAZOLE] was tested, and the DILI_Concern [1] was “Most-Dili-Concern” and the DILI_severity_class [2] was 8.
With `CCCN(CCC)S(=O)(=O)c1ccc(C(=O)O)cc1` [PROBENECID] the DILI_Concern [1] was “Ambiguous-Dili-Concern” and the DILI_severity_class [2] was 6.
`O=C1CN(/N=C/c2ccc(-c3ccc([N+](=O)[O-])cc3)o2)C(O)=N1` [DANTROLENE] was tested, and the DILI_Concern [1] was “Most-Dili-Concern” and the DILI_severity_class [2] was 8.
`CC[C@H](C)[C@H](N)C1=N[C@H](C(=O)N[C@@H](CC(C)C)C(=O)N[C@H](CCC(=O)O)C(=O)N[C@H](C(=O)N[C@H]2CCCCNC(=O)[C@H](CC(N)=O)NC(=O)[C@@H](CC(=O)O)NC(=O)[C@H](Cc3cnc[nH]3)NC(=O)[C@@H](Cc3ccccc3)NC(=O)[C@H]([C@@H](C)CC)NC(=O)[C@@H](CCCN)NC2=O)[C@@H](C)CC)CS1` [BACITRACIN] ({Ileψ(thiazoline)Cys}-L[dE]IK[dOrn]I[dF]H[dD]N; lactam 4-C) was tested, and the DILI_Concern [1] was “No-Dili-Concern” and the DILI_severity_class [2] was 0.
`Nc1nc(N)c2nc(-c3ccccc3)c(N)nc2n1` was tested, and the DILI_Concern [1] was “Less-Dili-Concern” and the DILI_severity_class [2] was 5.

Reference: ChEMBL document CHEMBL4028802, “DILIrank: the largest reference drug list ranked by the risk for developing drug-induced liver injury in humans” (Drug Discov Today, 2016)
